Values joined by “and” are separate entries in the source; they are usually repeats but may differ in a detail not shown here. Equal entries are not always repeated. Where two headings read alike, the source gives them in different places.

One data set addresses T1, MT1-MMP hemopexin domain (Homo sapiens, UniProt P50281).
T1 construct: residues Cys319-Gly511 from the human gene; His6 (N); made in house; host or cells: HEK293 cells (transient, pEXPR-IBA42 vector)
Nature of the data set: Fluorescence polarisation competition binding assay. The source says: The MT1-MMP hemopexin-like repeats (also known as the MT1-MMP hemopexin domain), residues Cys319-Gly511 from the human gene, were transiently expressed in HEK293 cells as secreted N-terminally His6-tagged soluble protein, using the pEXPR-IBA42 (IBA) expression vector. Following expression, the protein was purified by Nickel-NTA affinity chromatography followed by gel filtration, and purity was checked by SDS-PAGE. Batch to batch variability was also monitored by fluorescence thermal shift experiments in the presence/absence of a hemopexin domain binding bicycle.
(§1) Binding affinity was measured using competition assays using Fluorescence Polarisation (anisotropy).
Fluoresceination may be performed on the N-terminal amino group of the peptide, which is separated from the bicycle core sequence by a sarcosine spacer (usually Sar5). This can be done during Fmoc solid phase synthesis or post-synthetically (after cyclisation with TBMB and purification) if the N-terminal amino group is unique to the peptide. Fluoresceination can also be performed on the C-terminus, usually on a Lysine introduced as the first C-terminal residue, which is then separated from the bicycle core sequence by a sarcosine spacer (usually Sar6). Thus, N-terminal tracers can have a molecular format described as Fluo-Gly-Sar5-A(BicycleCoreSequence), and (BicycleCoreSequence)-A-Sar6-K(Fluo) for a C-terminally fluoresceinated construct. Fluorescent tracers used in the Examples are A-(17-69)-A-Sar6-K(Fluo), A-(17-69-07)-A-Sar6-K(Fluo), and A-(17-69-12)-A-Sar6-K(Fluo).
(§2) Here, a pre-formed complex of PEX with the fluorescent PEX-binding tracer is titrated with free, non-fluoresceinated bicyclic peptide. Since all 17-69-based peptides are expected to bind at the same site, the titrant will displace the fluorescent tracer from PEX. Dissociation of the complex can be measured quantitatively, and the Kd of the competitor (titrant) to the target protein determined. The advantage of the competition method is that the affinities of non-fluoresceinated bicyclic peptides can be determined accurately and rapidly.
(§3) Subsequently, the non-fluorescent competitor bicyclic peptide (usually just the bicycle core sequence) is titrated, such that it displaces the fluorescent tracer from the target protein. The displacement of the tracer is measured and associated with a drop in fluorescence polarisation. The drop in fluorescence polarisation is proportional to the fraction of target protein bound with the non-fluorescent titrant, and thus is a measure of the affinity of titrant to target protein.
The raw data is fit to the analytical solution of the cubic equation that describes the equilibria between fluorescent tracer, titrant, and binding protein. The fit requires the value of the affinity of fluorescent tracer to the target protein, which can be determined separately by direct binding FP experiments (see previous section).

A further data set addresses rat/mouse MT1-MMP (Mus musculus, UniProt P53690). Nature of the data set: Binding affinity to rat/mouse MT1-MMP, measured as previously described. To be noted: Binding Affinity (Ki in nM) rat/mouse ki, bicycle peptide-drug conjugates, two values given. Here is the method:
as §1, §2, §3
The raw data is fit to the analytical solution of the cubic equation that describes the equilibria between fluorescent tracer, titrant, and binding protein. The fit requires the value of the affinity of fluorescent tracer to the target protein, which can be determined separately by direct binding FP experiments (see previous section). The curve fitting was performed using Sigmaplot 12.0 and used an adapted version of the equation described by Zhi-Xin Wang (FEBS Letters 360 (1995) 111-114).
The in vitro binding affinities of the bicycle peptide-drug conjugates prepared above were measured for MT1-MMP as previously described herein.

Data set [1] can be described thus: Plasma stability in mouse serum. Type of data set: in vitro ADME. To be noted: 4 μm concentration, read-out: T1/2 in mouse serum. The source says:
(§4) The stability appears to be slightly greater than that of the corresponding conjugates in which the peptide is linked to the scaffold by three thioether linkages.

Data set [2] is described as follows: Plasma stability in human serum. Type of data set: in vitro ADME. To be noted: 4 μm concentration, read-out: T1/2 in human serum.
Excerpt: as §4

Where [3] appears, read: Binding Affinity (Ki in nM) Human ki, bicycle peptide-drug conjugates, human MT1-MMP, two values given.

With `CC[C@H](C)[C@@H]([C@@H](CC(=O)N1CCC[C@H]1[C@H](OC)[C@@H](C)C(=O)N[C@H](C)[C@@H](O)c1ccccc1)OC)N(C)C(=O)[C@@H](NC(=O)[C@H](C(C)C)N(C)C(=O)OCc1ccc(NC(=O)[C@H](CCCNC(N)=O)NC(=O)[C@@H](NC(=O)Cn2cc(CCC(=O)N[C@@H](C)C(=O)N[C@H]3CN(C)Cc4cc5cc(c4)CN(C)C[C@@H](C(N)=O)NC(=O)[C@H](C(C)(C)C)NC(=O)[C@H](CC(=O)O)NC(=O)[C@H](Cc4ccc(O)cc4)NC(=O)[C@H](Cc4ccccc4)NC(=O)[C@H](CC(=O)O)NC(=O)[C@H](CCC(=O)O)NC(=O)[C@H](CSC5)NC(=O)[C@@H](C)NC(=O)[C@H](Cc4cccc5ccccc45)NC(=O)[C@H](CCC(=O)O)NC(=O)[C@H](CC(N)=O)NC(=O)[C@@H](C)NC3=O)nn2)C(C)C)cc1)C(C)C` [BT17BDC-62], the Ki on MT1-MMP hemopexin domain (setting [3]) was 3.9 nM and 3.3 nM; on rat/mouse MT1-MMP it was 2.1 nM and 1.9 nM.

On to `CC[C@H](C)[C@@H]([C@@H](CC(=O)N1CCC[C@H]1[C@H](OC)[C@@H](C)C(=O)N[C@H](C)[C@@H](O)c1ccccc1)OC)N(C)C(=O)[C@@H](NC(=O)[C@H](C(C)C)N(C)C(=O)OCc1ccc(NC(=O)[C@H](CCCNC(N)=O)NC(=O)[C@@H](NC(=O)CCCC(=O)NCCC(=O)N(C)CC(=O)N(C)CC(=O)N(C)CC(=O)N(C)CC(=O)N(C)CC(=O)N(C)CC(=O)N(C)CC(=O)N(C)CC(=O)N(C)CC(=O)N(C)CC(=O)N[C@@H](C)C(=O)N[C@H]2CN(C)Cc3cc4cc(c3)CN(C)C[C@@H](C(N)=O)NC(=O)[C@H](C(C)(C)C)NC(=O)[C@H](CC(=O)O)NC(=O)[C@H](Cc3ccc(O)cc3)NC(=O)[C@H](Cc3ccccc3)NC(=O)[C@H](CC(=O)O)NC(=O)[C@H](CCC(=O)O)NC(=O)[C@H](CSC4)NC(=O)[C@@H](C)NC(=O)[C@H](Cc3cccc4ccccc34)NC(=O)[C@H](CCC(=O)O)NC(=O)[C@H](CC(N)=O)NC(=O)[C@@H](C)NC2=O)C(C)C)cc1)C(C)C` [BT17BDC-68], for which the Ki at MT1-MMP hemopexin domain (setting [3]) was 2.9 nM and 3.3 nM; on rat/mouse MT1-MMP, 1.8 nM and 1.6 nM.

`C#CCCC(=O)N[C@@H](C)C(=O)N[C@H]1CNCc2cc3cc(c2)CSC[C@H](NC(=O)[C@@H](C)NC(=O)[C@H](Cc2cccc4ccccc24)NC(=O)[C@H](CCC(=O)O)NC(=O)[C@H](CC(N)=O)NC(=O)[C@@H](C)NC1=O)C(=O)N[C@@H](CCC(=O)O)C(=O)N[C@@H](CC(=O)O)C(=O)N[C@@H](Cc1ccccc1)C(=O)N[C@@H](Cc1ccc(O)cc1)C(=O)N[C@@H](CC(=O)O)C(=O)N[C@@H](C(C)(C)C)C(=O)N[C@H](C(N)=O)CNC3` [17-69-07-N438, PYA-A(Dap)(D-Ala)NE(1Nal)(D-Ala)CEDFYD(tBuGly)(Dap)]: the Ki at MT1-MMP hemopexin domain (Binding Affinity Ki (h), human MT1-MMP, bicycle peptides) was 3.1 nM.

For the compound `CC(=O)N[C@@H](C)C(=O)N[C@H]1CNCc2cc3cc(c2)CSC[C@H](NC(=O)[C@@H](C)NC(=O)[C@H](Cc2cccc4ccccc24)NC(=O)[C@H](CCC(=O)O)NC(=O)[C@H](CC(N)=O)NC(=O)[C@@H](C)NC1=O)C(=O)N[C@@H](CCC(=O)O)C(=O)N[C@@H](CC(=O)O)C(=O)N[C@@H](Cc1ccccc1)C(=O)N[C@@H](Cc1ccc(O)cc1)C(=O)N[C@@H](CC(=O)O)C(=O)N[C@@H](C(C)(C)C)C(=O)N[C@H](C(N)=O)CNC3` [17-69-07-N385, Ac-A(Dap)(D-Ala)NE(1Nal)(D-Ala)CEDFYD(tBuGly)(Dap)], the Kd on MT1-MMP hemopexin domain amounted to 0.45 nM.

As for `CC[C@H](C)[C@@H]([C@@H](CC(=O)N1CCC[C@H]1[C@H](OC)[C@@H](C)C(=O)N[C@H](C)[C@@H](O)c1ccccc1)OC)N(C)C(=O)[C@@H](NC(=O)[C@H](C(C)C)N(C)C(=O)OCc1ccc(NC(=O)[C@H](CCCNC(N)=O)NC(=O)[C@@H](NC(=O)Cn2cc(CCC(=O)NCCC(=O)N(C)CC(=O)N(C)CC(=O)N(C)CC(=O)N(C)CC(=O)N(C)CC(=O)N(C)CC(=O)N(C)CC(=O)N(C)CC(=O)N(C)CC(=O)N(C)CC(=O)N[C@@H](C)C(=O)N[C@H]3CNCc4cc5cc(c4)CSC[C@H](NC(=O)[C@@H](C)NC(=O)[C@H](Cc4cccc6ccccc46)NC(=O)[C@H](CCC(=O)O)NC(=O)[C@H](CC(N)=O)NC(=O)[C@@H](C)NC3=O)C(=O)N[C@@H](CCC(=O)O)C(=O)N[C@@H](CC(=O)O)C(=O)N[C@@H](Cc3ccccc3)C(=O)N[C@@H](Cc3ccc(O)cc3)C(=O)N[C@@H](CC(=O)O)C(=O)N[C@@H](C(C)(C)C)C(=O)N[C@H](C(N)=O)CNC5)nn2)C(C)C)cc1)C(C)C` [BT17BDC-53], the Ki at MT1-MMP hemopexin domain (setting [3]) was 3.6 nM and 2.5 nM; at rat/mouse MT1-MMP, 1.8 nM and 1.6 nM. Further, the half-life at 4 μm in data set [1] and in data set [2] was over 50 h throughout.

As for `CC(=O)N[C@@H](C)C(=O)N[C@H]1CNCc2cc3cc(c2)CSC[C@H](NC(=O)[C@@H](C)NC(=O)[C@H](Cc2cccc4ccccc24)NC(=O)[C@H](CCC(=O)O)NC(=O)[C@H](CC(N)=O)NC(=O)[C@@H](C)NC1=O)C(=O)N[C@@H](CCC(=O)O)C(=O)N[C@@H](CC(=O)O)C(=O)N[C@@H](Cc1ccccc1)C(=O)N[C@@H](Cc1ccccc1)C(=O)N[C@@H](CC(=O)O)C(=O)N[C@@H](C(C)(C)C)C(=O)N[C@H](C(N)=O)CNC3` [17-69-07-N428, Ac-A(Dap)(D-Ala)NE(1Nal)(D-Ala)CEDFF9D(tBuGly)(Dap)], the Kd at MT1-MMP hemopexin domain was 3.5 nM.

`C#CCCC(=O)NCCC(=O)N(C)CC(=O)N(C)CC(=O)N(C)CC(=O)N(C)CC(=O)N(C)CC(=O)N(C)CC(=O)N(C)CC(=O)N(C)CC(=O)N(C)CC(=O)N(C)CC(=O)N[C@@H](C)C(=O)N[C@H]1CNCc2cc3cc(c2)CSC[C@H](NC(=O)[C@@H](C)NC(=O)[C@H](Cc2cccc4ccccc24)NC(=O)[C@H](CCC(=O)O)NC(=O)[C@H](CC(N)=O)NC(=O)[C@@H](C)NC1=O)C(=O)N[C@@H](CCC(=O)O)C(=O)N[C@@H](CC(=O)O)C(=O)N[C@@H](Cc1ccccc1)C(=O)N[C@@H](Cc1ccc(O)cc1)C(=O)N[C@@H](CC(=O)O)C(=O)N[C@@H](C(C)(C)C)C(=O)N[C@H](C(N)=O)CNC3` [17-69-07-N434, (PYA)-(B-Ala)-Sar10-A(Dap)(D-Ala)NE(1Nal)(D-Ala)CEDFYD(tBuGly)(Dap)] yielded a Kd at MT1-MMP hemopexin domain of 1.52 nM.

For `CC(=O)N[C@@H](C)C(=O)N[C@H]1CN(C)Cc2cc3cc(c2)CN(C)C[C@@H](C(N)=O)NC(=O)[C@H](C(C)(C)C)NC(=O)[C@H](CC(=O)O)NC(=O)[C@H](Cc2ccc(O)cc2)NC(=O)[C@H](Cc2ccccc2)NC(=O)[C@H](CC(=O)O)NC(=O)[C@H](CCC(=O)O)NC(=O)[C@H](CSC3)NC(=O)[C@@H](C)NC(=O)[C@H](Cc2cccc3ccccc23)NC(=O)[C@H](CCC(=O)O)NC(=O)[C@H](CC(N)=O)NC(=O)[C@@H](C)NC1=O` [17-69-07-N426, Ac-A(Dap(Me))(D-Ala)NE(1Nal)(D-Ala)CEDFYD(tBuGly)(Dap(Me))], the Kd on MT1-MMP hemopexin domain (competition FP, bicycle peptides, read-out: measured affinity (Kd) to MT1-MMP) worked out at 0.36 nM.

Take `CC(=O)N[C@@H](C)C(=O)N[C@H]1CN(C)Cc2cc3cc(c2)CN(C)C[C@H](NC(=O)[C@@H](C)NC(=O)[C@H](Cc2cccc4ccccc24)NC(=O)[C@H](CCC(=O)O)NC(=O)[C@H](CC(N)=O)NC(=O)[C@@H](C)NC1=O)C(=O)N[C@@H](CCC(=O)O)C(=O)N[C@@H](CC(=O)O)C(=O)N[C@@H](Cc1ccccc1)C(=O)N[C@@H](Cc1ccc(O)cc1)C(=O)N[C@@H](CC(=O)O)C(=O)N[C@@H](C(C)(C)C)C(=O)N[C@H](C(N)=O)CN(C)C3` [17-69-07-N474, Ac-A(Dap(Me))(D-Ala)NE(1NaI)(D-Ala)(Dap(Me))EDFYD(tBuGly)(Dap(Me))]: on MT1-MMP hemopexin domain, the Kd amounted to 8 nM and the affinity, expressed as Ki, was 7.5 nM.

For the origin of these results see patent US11730819B2, “Peptide derivatives having novel linkage structures” (priority 2016, dated 2023).
